Source: patent US9365576B2, “Pyrrolopyrrolidinone compounds” (Novartis AG, priority 2012, dated 2016)

These molecules were tested against human MDM2 protein (amino acids 2-188) (Homo sapiens (Human), UniProt Q00987) (assay: TR-FRET assay, p53-MDM2 Assay 2 (modified)). Conditions: not given.
Assay type: binding
Protocol: The inhibition of p53-MDM2 and p53-MDM4 interactions is measured by time resolved fluorescence energy transfer (TR-FRET). Fluorescence energy transfer (or Foerster resonance energy transfer) describes an energy transfer between donor and acceptor fluorescent molecules. For this assay, human MDM2 protein (amino acids 2-188) and human MDM4 protein (amino acids 2-185), tagged with a C-terminal biotin moiety, are used in combination with a Europium labeled streptavidin (Perkin Elmer, Inc., Waltham, Mass., USA) serving as the donor fluorophore. The p53 derived, Cy5 labeled peptide Cy5-[…] (p53 aa18-26) is the energy acceptor. Upon excitation of the donor molecule at 340 nm, binding interaction between MDM2 or MDM4 and the p53 peptide induces energy transfer and enhanced response at the acceptor emission wavelength at 665 nm. […] The ratiometric FRET assay readout is calculated from the raw data of the two distinct fluorescence signals measured in time resolved mode (fluorescence 665 nm/fluorescence 620 nm×1000).
After addition of 1.25 nM MDM2-biotinylated or 2.5 nM MDM4-biotinylated (internal preparations), and 0.625 nM Europium labeled streptavidin (Perkin Elmer), the solution is pre-incubated for 15 minutes at room temperature, then 10 nM Cy5-p53 peptide (internal preparation) is added before an incubation at room temperature for 15 minutes prior to reading the plate. For measurement of samples, a Victor II microplate reader (Perkin Elmer) is used with the following settings: Excitation 340 nm, Emission Donor 620 nm and Emission Acceptor 665 nm. IC50 values are calculated by curve fitting using XLfit. If not specified, reagents are purchased from Sigma-Aldrich Chemie GmBH, Buchs, Switzerland.

Chain of human MDM2 protein (amino acids 2-188) (Q00987 2-188): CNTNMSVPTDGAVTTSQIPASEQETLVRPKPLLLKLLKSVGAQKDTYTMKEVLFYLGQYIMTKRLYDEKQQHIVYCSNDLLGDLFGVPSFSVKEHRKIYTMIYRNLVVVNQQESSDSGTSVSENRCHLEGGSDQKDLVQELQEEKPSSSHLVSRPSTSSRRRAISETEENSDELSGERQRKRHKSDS

Compound | IC50 [nM]
COc1ncccc1-c1cc2c(n1C(C)C)C(c1ccc(Cl)cc1)N(c1cc(Cl)ccc1C)C2=O (centres unmarked) [Example 12, 5-(5-Chloro-2-methyl-phenyl)-6-(4-chloro-phenyl)-1-isopropyl-2-(2-methoxy-pyridin-3-yl)-5,6-dihydro-1H-pyrrolo[3,4-b]pyrrol-4-one] | 0.49

Same assay, conditions: TR-FRET; 0.1 nM MDM2, 0.1 nM Europium labeled streptavidin, Tecan genios Pro reader; read-out: IC50 p53-MDM2 Assay 2

Compound | IC50 [nM]
COc1ccc(CO)cc1-c1cc2c(n1C(C)C)C(c1ccc(Cl)cc1C)N(c1cccc(Cl)c1F)C2=O (centres unmarked) [Example 4, 5-(3-Chloro-2-fluoro-phenyl)-6-(4-chloro-2-methyl-phenyl)-2-(5-hydroxymethyl-2-methoxy-phenyl)-1-isopropyl-5,6-dihydro-1H-pyrrolo[3,4-b]pyrrol-4-one] | 0.286
COc1ncccc1-c1cc2c(n1C(C)C)C(c1ccc(Cl)cc1C)N(c1cccc(Cl)c1F)C2=O (centres unmarked) [Example 5, 5-(3-Chloro-2-fluoro-phenyl)-6-(4-chloro-2-methyl-phenyl)-1-isopropyl-2-(2-methoxy-pyridin-3-yl)-5,6-dihydro-1H-pyrrolo[3,4-b]pyrrol-4-one] | 1.7
COc1ccncc1-c1cc2c(n1C(C)C)C(c1ccc(Cl)cc1C)N(c1cccc(Cl)c1F)C2=O (centres unmarked) [Example 6, 5-(3-Chloro-2-fluoro-phenyl)-6-(4-chloro-2-methyl-phenyl)-1-isopropyl-2-(4-methoxy-Pyridin-3-yl)-5,6-dihydro-1H-pyrrolo[3,4-b]pyrrol-4-one] | 0.172
CNC(=O)c1ccc(OC)c(-c2cc3c(n2C(C)C)[C@@H](c2ccc(Cl)cc2C)N(c2cccc(Cl)c2F)C3=O)c1 [Example 8, 3-[(R)-5-(3-Chloro-2-fluoro-phenyl)-6-(4-chloro-2-methyl-phenyl)-1-isopropyl-4-oxo-1,4,5,6-tetrahydro-pyrrolo[3,4-b]pyrrol-2-yl]-4-methoxy-N-methyl-benzamide] | 49
COc1ccc(CO)cc1-c1cc2c(n1C(C)C)C(c1ccc(Cl)cc1)N(c1cc(Cl)ccc1C)C2=O (centres unmarked) [Example 11, 5-(5-Chloro-2-methyl-phenyl)-6-(4-chloro-phenyl)-2-(5-hydroxymethyl-2-methoxy-phenyl)-1-isopropyl-5,6-dihydro-1H-pyrrolo[3,4-b]pyrrol-4-one] | 0.113
COc1ccncc1-c1cc2c(n1C(C)C)C(c1ccc(Cl)cc1)N(c1cc(Cl)ccc1C)C2=O (centres unmarked) [Example 13, 5-(5-Chloro-2-methyl-phenyl)-6-(4-chloro-phenyl)-1-isopropyl-2-(4-methoxy-pyridin-3-yl)-5,6-dihydro-1H-pyrrolo[3,4-b]pyrrol-4-one] | 0.176
COc1ncc(-c2cc3c(n2C(C)C)C(c2ccc(Cl)cc2)N(c2cc(Cl)ccc2C)C3=O)c(OC)n1 (centres unmarked) [Example 14, 5-(5-Chloro-2-methyl-phenyl)-6-(4-chloro-phenyl)-2-(2,4-dimethoxy-pyrimidin-5-yl)-1-isopropyl-5,6-dihydro-1H-pyrrolo[3,4-b]pyrrol-4-one] | 0.068
COc1ccc(C(=O)N(C)C)cc1-c1cc2c(n1C(C)C)C(c1ccc(Cl)cc1)N(c1cc(Cl)ccc1C)C2=O (centres unmarked) [Example 15, 3-[5-(5-Chloro-2-methyl-phenyl)-6-(4-chloro-phenyl)-1-isopropyl-4-oxo-1,4,5,6-tetrahydro-pyrrolo[3,4-b]pyrrol-2-yl]-4-methoxy-N,N-dimethyl-benzamide] | 0.133
COc1ncncc1-c1cc2c(n1C(C)C)C(c1ccc(Cl)cc1)N(c1cc(Cl)ccc1C)C2=O (centres unmarked) [Example 16, 5-(5-Chloro-2-methyl-phenyl)-6-(4-chloro-phenyl)-1-isopropyl-2-(4-methoxy-pyrimidin-5-yl)-5,6-dihydro-1H-pyrrolo[3,4-b]pyrrol-4-one] | 0.308
COc1ccc(C#N)cc1-c1cc2c(n1C(C)C)C(c1ccc(Cl)cc1)N(c1cc(Cl)ccc1C)C2=O (centres unmarked) [Example 17, 3-[5-(5-Chloro-2-methyl-phenyl)-6-(4-chloro-phenyl)-1-isopropyl-4-oxo-1,4,5,6-tetrahydro-pyrrolo[3,4-b]pyrrol-2-yl]-4-methoxy-benzonitrile] | 0.281
